Legend:
[1] = target: human endothelial constitutive NOS (eNOS) (Homo sapiens, UniProt P29474); assay: biochemical; conditions: read-out: h-eNOS IC50
[2] = human, open pilot study; cited from earlier work

Structure (SMILES)	IC50 [1] [µM]	patients with a reduction in the frequency of migraine attack of 50% [2] [%]
CN1CCC(n2cnc3cc(NC(=N)c4cccs4)ccc32)CC1 [Compound 59]	6.66	–
C/C1=C2/[N-][C@H]([C@H](CC(N)=O)[C@@]2(C)CCC(=O)NC[C@@H](C)OP(=O)([O-])O[C@H]2[C@@H](O)[C@@H](n3cnc4cc(C)c(C)cc43)O[C@@H]2CO)[C@]2(C)N=C(/C(C)=C3N=C(/C=C4N=C1[C@@H](CCC(N)=O)C\4(C)C)[C@@H](CCC(N)=O)[C@]\3(C)CC(N)=O)[C@@H](CCC(N)=O)[C@]2(C)CC(N)=O.[Co+3].[OH-] [hydroxycobalamin]	–	53

— patent publication US7919510B2 (priority 2005, dated 2011)
